The results in this text go back to patent US8841296B2, “Substituted 1, 4-dioxa-8-azaspiro[4,5]decanes useful as fungicides and a process for the preparation thereof” (Council of Scientific and Industrial Research, Anusandhan …, priority 2009, dated 2014).

The test system of one test is Magnaporthe grisea. The test is classed as cell-based.
A further test has as its system Drechslera oryzae. The test can be described thus: Growth inhibition plate assay, D. oryzae. It counts as cell-based. The conditions noted are these: ND = Not Detectable; for inhibition at 25 ppm: Bipolaris oryzae, read-out: Plate assay inhibition, P3 D. oryzae, 25 ppm.
Another test concerns Fusarium oxysporum. Briefly: Growth inhibition plate assay, F. oxysporum. Particulars: ND = Not Detectable; for inhibition at 25 ppm: Fusarium oxysporum, read-out: Plate assay inhibition, P4 F. oxysporum. The test is classed as cell-based.
For another test, the system named is Rhizoctonia solani. The test can be described thus: Growth inhibition plate assay, R. solani. The test is classed as cell-based. The conditions noted are these: ND = Not Detectable, read-out: Plate assay inhibition, P1 R. solani.
The next test concerns Pythium aphanidermatum. The test can be described thus: Growth inhibition plate assay, P. aphanidermatum. The test is classed as cell-based. Particulars: ND = Not Detectable, read-out: Plate assay inhibition, P6 P. aphanidermatum.
Another test has as its system rose powdery mildew. The test can be described thus: Field experiment against rose powdery mildew. The test is classed as in vivo. Particulars: 4 days after spray; for Rose PM % Control: over untreated check. From the text:
Two sprays were given at an interval of 4 days. The spraying was done by Foot operated sprayer using 1200 L spray volume/hectare. […] Based on the observations percent incidence was worked out. The data was subjected to statistical analysis.

In another test the test system is grape powdery mildew. The test can be described thus: Field experiment against grape powdery mildew. The test is classed as in vivo, grapevine. The conditions noted are these: for % Disease Control (11 DAIIS) / % Disease Control (15 DAIIS): over untreated check; for PDI on Bunches 15 DAIIS / % Disease Control (15 DAIIS): 15 days after 2nd spray. As to the method: A field experiment was conducted on pruned grapevine, in a randomized block design with ten treatments (Table No 1) and three replications. Two sprays were given at an interval of 10 days. The plot size was eight vines per treatment/replication. The spraying was done by Knapsack sprayer using 850 L spray volume/hectare. […] Based on the observations percent incidence was worked out.

In another test the test system is Pyrricularia oryzae. Briefly: microbe, parasite or virus in culture. The test is classed as cell-based. The conditions noted are these: ND = Not Detectable.
For the next test, the system named is grape downy mildew. The test can be described thus: Field experiment against grape downy mildew. The test is classed as in vivo, grapevine. The conditions noted are these: for Grape Downy mildew incidence 7 DAIIS / % Control (7 DAIIS): 7 days after 2nd spray; for % Control (7 DAIIS) / % Control (10 DAIIS): over untreated check; for Grape Downy mildew incidence 10 DAIIS / % Control (10 DAIIS): 10 days after 2nd spray. The procedure: A field experiment was conducted on pruned grapevine, in a randomized block design with ten treatments (Table No. 3) and three replications. Two sprays were given at an interval of 6 days starting at 28 days after pruning. The plot size was ten vines per treatment/replication. The spraying was done by Knapsack sprayer using 1000 L spray volume/hectare. […] Based on the observations, percent disease incidence was worked out. The data was subjected to statistical analysis.

The subject of a further test is Colletotrichum capsici. The test can be described thus: Growth inhibition plate assay, C. capsici. It counts as cell-based. Particulars: ND = Not Detectable.
The test system of test [1] is plant pathogenic fungi (all the test pathogens). It counts as cell-based. Particulars: result in words.
[2] abbreviates: 20% EC @ 340 g a.i./ha, 11 days after 2nd spray.

Take `c1ccc(CCN2CCC3(CC2)OCC(COCc2ccccc2)O3)cc1` (centres unmarked) [Compound 5, 2-benzyloxymethyl-8-phenethyl-1,4-dioxa-8-azaspiro[4,5]decane]: the “inhibition against M. grisea” value in the test with Magnaporthe grisea is listed as 60-70%. The inhibition at 25 ppm with Drechslera oryzae is 60 to 70%; with Fusarium oxysporum it was 40 to 50%; with Rhizoctonia solani, 40 to 50%.
For `c1ccc(CCN2CCC3(CC2)OCC(CSc2ccccc2)O3)cc1` (centres unmarked) [Compound 6, 8-phenethyl-2-phenylsulphanylmethyl-1,4-dioxa-8-azaspiro[4,5]decane], the inhibition at 25 ppm with Pythium aphanidermatum was 50 to 60%; with Pyrricularia oryzae (Pyricularia oryzae, read-out: Plate assay inhibition, P5 P. oryzae, 25 ppm), 60 to 90%; in the test with Drechslera oryzae, 60 to 90%; in the test on Colletotrichum capsici (Colletotrichum truncatum, read-out: Plate assay inhibition, P2 C. capsici), 60 to 90%; in the test on Fusarium oxysporum, 60 to 90%; in the test with Rhizoctonia solani, 90 to 100%. Also, the “Rose PM % incidence 4 DAS” value is listed as 38.42% with rose powdery mildew (20% EC @ 240 g a.i./ha), 29.45% in the test on rose powdery mildew (20% EC @ 480 g a.i./ha) and 23.21% in the test with rose powdery mildew (20% EC @ 720 g a.i./ha). For the same compound, the results for the “Rose PM % Control” value in the test with rose powdery mildew (20% EC @ 240 g a.i./ha), in the test with rose powdery mildew (20% EC @ 480 g a.i./ha) and in the test with rose powdery mildew (20% EC @ 720 g a.i./ha) were 25.44%, 42.84% and 54.95%, respectively. Also, the “PDI on Bunches 11 DAIIS” value with grape powdery mildew (setting [2]) was found to be 11.89%. Moreover, the “% Disease Control (11 DAIIS)” value with grape powdery mildew (setting [2]) is 60.24%; with grape powdery mildew (20% EC @ 510 g a.i./ha, 11 days after 2nd spray) it was 66.26%; in the test on grape powdery mildew (20% EC @ 680 g a.i./ha, 11 days after 2nd spray) it was 69.6%. Also, the “PDI on Bunches 15 DAIIS” value is reported as 10.6% in the test with grape powdery mildew (20% EC @ 340 g a.i./ha) and 9.1% in the test on grape powdery mildew (20% EC @ 510 g a.i./ha). Further, the figures for the “% Disease Control (15 DAIIS)” value in the test with grape powdery mildew (20% EC @ 340 g a.i./ha), with grape powdery mildew (20% EC @ 510 g a.i./ha) and in the test on grape powdery mildew (20% EC @ 680 g a.i./ha) were 59.43%, 65.17% and 70.72%, respectively. Further, the “Plate assay inhibition, P5 P. oryzae” value in the test with Pyrricularia oryzae (25 ppm, listed as C6) was 80-90%. The “Plate assay inhibition, P3 D. oryzae” value with Drechslera oryzae (25 ppm, listed as C6) is listed as 70-80%. For the same compound, the “Grape Downy mildew incidence 7 DAIIS” value in the test with grape downy mildew (20% EC @ 400 g a.i./ha) amounted to 16.14%; in the test with grape downy mildew (20% EC @ 800 g a.i./ha), 16.91%. In addition, the “% Control (7 DAIIS)” value in the test on grape downy mildew (20% EC @ 400 g a.i./ha) was determined as 4.21%; in the test with grape downy mildew (20% EC @ 800 g a.i./ha), 0%. Also, the “Grape Downy mildew incidence 10 DAIIS” value was found to be 24.88% in the test on grape downy mildew (20% EC @ 400 g a.i./ha) and 17.7% with grape downy mildew (20% EC @ 800 g a.i./ha). In addition, the “% Control (10 DAIIS)” value in the test with grape downy mildew (20% EC @ 400 g a.i./ha) was determined as 0%; in the test on grape downy mildew (20% EC @ 800 g a.i./ha), 22.3%. For the same compound, the “Plate assay inhibition, P2 C. capsici” value in the test on Colletotrichum capsici (25 ppm, listed as C6) is listed as 60-70%. For the same compound, the “Plate assay inhibition, P4 F. oxysporum” value with Fusarium oxysporum (25 ppm, listed as C6) is given as 70-80%. In test [1], the “fungicidal activity against plant pathogenic fungi” value is “active against all pathogens”.

The term inhibition denotes the change of the read-out against control, counted positive when it falls.
